Earlier results in publication PMC12073449, “Development of a Mechanism of Action-Reflective Cell-Based Reporter Gene Assay for Measuring Bioactivities of Therapeutic Glucagon-like Peptide-2 Analogues” (Molecules, 2025).
Ends that are not written are not given here.

Set-up: method as in PMID 35933503
Settings: general statement; cited from earlier work
Description: The diverse functions of GLP-2 highlight its significance in maintaining intestinal health and physiology. As a naturally occurring gut hormone, GLP-2 not only promotes nutrient absorption by decreasing intestinal motility and permeability, but also plays a pivotal role in stimulating intestinal epithelial cell growth and function. This multifaceted action of GLP-2 is crucial for the maintenance of the intestinal barrier, which is essential for preventing the translocation of harmful bacteria and toxins into the bloodstream.

HGEGTFSSELATILDALAARDFINWLIATKITDKKKKKK-NH2 [glepaglutide]
bioactivity: enhanced bioactivities | half-life: extended half-lives
